Assays:
PTPN2 [1] = target: T1, PTPN2 (Homo sapiens, UniProt P17706); assay: HiBiT-Degradation 293T.109 PTPN2 (Nano-Glo HiBiT Lytic Assay); assay type: cell-based; conditions: 293T.109 (HiBiT-PTPN2) cells, 24.0 hours
T1 construct: expressed in transfected cells; host or cells: 293T (293T.109 HiBiT-PTPN2 line; parental 293T WT from ATCC)
T1 sequence (P17706 1-415): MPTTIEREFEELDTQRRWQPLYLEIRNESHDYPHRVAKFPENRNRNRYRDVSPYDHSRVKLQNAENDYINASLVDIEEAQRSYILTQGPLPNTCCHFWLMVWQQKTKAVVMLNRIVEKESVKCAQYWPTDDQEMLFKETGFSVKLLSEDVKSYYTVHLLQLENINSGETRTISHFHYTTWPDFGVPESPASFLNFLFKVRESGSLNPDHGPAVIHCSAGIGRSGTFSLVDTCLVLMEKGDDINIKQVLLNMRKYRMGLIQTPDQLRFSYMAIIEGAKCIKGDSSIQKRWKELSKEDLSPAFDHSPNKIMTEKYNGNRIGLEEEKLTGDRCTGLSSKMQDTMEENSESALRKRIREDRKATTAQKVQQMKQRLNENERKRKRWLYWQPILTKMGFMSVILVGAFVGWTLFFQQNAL
Source text: Dulbecco's modified Eagle medium (DMEM) without phenol red and fetal bovine serum (FBS) were purchased from Gibco (Grand Island, NY, USA). Nano-Glo® HiBIT Lytic Assay System was purchased from Promega (Madison, WI, USA). 293T.109 (HiBiT-PTPN2) cell line was generated by ectopically expressing PTPN2 with N-terminal HiBiT fusion tag in 293T WT cell line purchased from ATCC (Manassas, VA, USA). Cell culture flasks and 384-well microplates were acquired from VWR (Radnor, PA, USA).
PTPN2 degradation was determined based on quantification of luminescent signal using Nano-Glo® HiBIT Lytic Assay kit. Test compounds were added to the 384-well plate from a top concentration of 10 μM with 11 points, half log titration in duplicates. 293T.109 cells were added into 384-well plates at a cell density of 5000 cells per well. The plates were kept at 37° C. with 5% CO2 for 24 hours. The cells treated in the absence of the test compound were the negative control and the cells without Nano-Glo® HiBiT Lytic reagent were the positive control. After 24-hour incubation, Nano-Glo® HiBIT Lytic Assay reagents were added to the cells. Luminescence was acquired on EnVision™ Multilabel Reader (PerkinElmer, Santa Clara, CA, USA).

PTPN2 [2] = assay: HiBiT-Degradation B16F10.4 PTPN2; assay type: cell-based; conditions: B16F10.4 cells, 24.0 hours

| Structure (SMILES) | DC50 (PTPN2 [1]) [nM] | DC50 (PTPN2 [2]) [nM] |
| --- | --- | --- |
| O=C1CCC(N2C(=O)c3cccc(NCc4cnn(CCC(=O)Nc5ccc6c(F)c(N7CC(=O)NS7(=O)=O)c(O)cc6c5)c4)c3C2=O)C(=O)N1 (stereo not drawn) [Example 12, 3-[4-[[[2-(2,6-dioxo-3-piperidyl)-1,3-dioxo-isoindolin-4-yl]amino]methyl]pyrazol-1-yl]-N-[5-fluoro-7-hydroxy-6-(1,1,4-trioxo-1,2,5-thiadiazolidin-2-yl)-2-naphthyl]propanamide] | 200 to 1000 | ≥ 1000 |
| O=C1CCC(N2Cc3c(NCc4cnn(CCC(=O)Nc5ccc6c(F)c(N7CC(=O)NS7(=O)=O)c(O)cc6c5)c4)cccc3C2=O)C(=O)N1 (stereo not drawn) [Example 13, 3-[4-[[[2-(2,6-dioxo-3-piperidyl)-1-oxo-isoindolin-4-yl]amino]methyl]pyrazol-1-yl]-N-[5-fluoro-7-hydroxy-6-(1,1,4-trioxo-1,2,5-thiadiazolidin-2-yl)-2-naphthyl]propanamide] | 50 to 200 | 200 to 1000 |
| O=C1CCC(N2C(=O)c3ccc(NCc4cn(CCC(=O)Nc5ccc6c(F)c(N7CC(=O)NS7(=O)=O)c(O)cc6c5)nn4)cc3C2=O)C(=O)N1 (stereo not drawn) [Example 14, N-(6-(1,1-dioxido-4-oxo-1,2,5-thiadiazolidin-2-yl)-5-fluoro-7-hydroxynaphthalen-2-yl)-3-(4-(((2-(2,6-dioxopiperidin-3-yl)-1,3-dioxoisoindolin-5-yl)amino)methyl)-1H-1,2,3-triazol-1-yl)propanamide] | 200 to 1000 | 200 to 1000 |
| O=C1CCC(N2Cc3cc(NCc4cn(CCC(=O)Nc5ccc6c(F)c(N7CC(=O)NS7(=O)=O)c(O)cc6c5)nn4)ccc3C2=O)C(=O)N1 (stereo not drawn) [Example 15, 3-[4-[[[2-(2,6-dioxo-3-piperidyl)-1-oxo-isoindolin-5-yl]amino]methyl]triazol-1-yl]-N-[5-fluoro-7-hydroxy-6-(1,1,4-trioxo-1,2,5-thiadiazolidin-2-yl)-2-naphthyl]propanamide] | 200 to 1000 | 200 to 1000 |
| O=C1CCC(N2Cc3cc(NCc4cnn(CCC(=O)Nc5ccc6c(F)c(N7CC(=O)NS7(=O)=O)c(O)cc6c5)c4)ccc3C2=O)C(=O)N1 (stereo not drawn) [Example 16, 3-[4-[[[2-(2,6-dioxo-3-piperidyl)-1-oxo-isoindolin-5-yl]amino]methyl]pyrazol-1-yl]-N-[5-fluoro-7-hydroxy-6-(1,1,4-trioxo-1,2,5-thiadiazolidin-2-yl)-2-naphthyl]propanamide] | 50 to 200 | 200 to 1000 |
| O=C1CCC(N2C(=O)c3cccc(NCc4cn(C5CN(C(=O)Nc6ccc7c(F)c(N8CC(=O)NS8(=O)=O)c(O)cc7c6)C5)nn4)c3C2=O)C(=O)N1 (stereo not drawn) [Example 17, 3-[4-[[[2-(2,6-dioxo-3-piperidyl)-1,3-dioxo-isoindolin-4-yl]amino]methyl]triazol-1-yl]-N-[5-fluoro-7-hydroxy-6-(1,1,4-trioxo-1,2,5-thiadiazolidin-2-yl)-2-naphthyl]azetidine-1-carboxamide] | 50 to 200 | ≥ 1000 |
| CC(C)(Nc1cccc2c1C(=O)N(C1CCC(=O)NC1=O)C2=O)c1cn(CCC(=O)Nc2ccc3c(F)c(N4CC(=O)NS4(=O)=O)c(O)cc3c2)nn1 (stereo not drawn) [Example 18, N-(6-(1,1-dioxido-4-oxo-1,2,5-thiadiazolidin-2-yl)-5-fluoro-7-hydroxynaphthalen-2-yl)-3-(4-(2-((2-(2,6-dioxopiperidin-3-yl)-1,3-dioxoisoindolin-4-yl)amino)propan-2-yl)-1H-1,2,3-triazol-1-yl)propanamide] | 200 to 1000 | ≥ 1000 |
| O=C1CCC(N2Cc3c(OCc4cn(CCC(=O)Nc5ccc6c(F)c(N7CC(=O)NS7(=O)=O)c(O)cc6c5)nn4)cccc3C2=O)C(=O)N1 (stereo not drawn) [Example 19, N-(6-(1,1-dioxido-4-oxo-1,2,5-thiadiazolidin-2-yl)-5-fluoro-7-hydroxynaphthalen-2-yl)-3-(4-(((2-(2,6-dioxopiperidin-3-yl)-1-oxoisoindolin-4-yl)oxy)methyl)-1H-1,2,3-triazol-1-yl)propanamide] | 50 to 200 | 200 to 1000 |
| O=C1CCC(N2Cc3cc(OCc4cn(CCC(=O)Nc5ccc6c(F)c(N7CC(=O)NS7(=O)=O)c(O)cc6c5)nn4)ccc3C2=O)C(=O)N1 (stereo not drawn) [Example 20, 3-[4-[[2-(2,6-dioxo-3-piperidyl)-1-oxo-isoindolin-5-yl]oxymethyl]triazol-1-yl]-N-[5-fluoro-7-hydroxy-6-(1,1,4-trioxo-1,2,5-thiadiazolidin-2-yl)-2-naphthyl]propanamide] | 50 to 200 | 50 to 200 |
| O=C1CCC(N2Cc3c(OCc4cnn(CCC(=O)Nc5ccc6c(F)c(N7CC(=O)NS7(=O)=O)c(O)cc6c5)c4)cccc3C2=O)C(=O)N1 (stereo not drawn) [Example 21, N-(6-(1,1-dioxido-4-oxo-1,2,5-thiadiazolidin-2-yl)-5-fluoro-7-hydroxynaphthalen-2-yl)-3-(4-(((2-(2,6-dioxopiperidin-3-yl)-1-oxoisoindolin-4-yl)oxy)methyl)-1H-pyrazol-1-yl)propanamide] | 50 to 200 | 200 to 1000 |
| Cn1c(=O)n(C2CCC(=O)NC2=O)c2ccc(C3CCN(CC(=O)Nc4ccc5c(F)c(N6CC(=O)NS6(=O)=O)c(O)cc5c4)CC3)cc21 (stereo not drawn) [Example 22, N-(6-(1,1-dioxido-4-oxo-1,2,5-thiadiazolidin-2-yl)-5-fluoro-7-hydroxynaphthalen-2-yl)-2-(4-(1-(2,6-dioxopiperidin-3-yl)-3-methyl-2-oxo-2,3-dihydro-1H-benzo[d]imidazol-5-yl)piperidin-1-yl)acetamide] | < 10 | 50 to 200 |
| O=C1CCC(n2c(=O)oc3cc(C4CCN(CC(=O)Nc5ccc6c(F)c(N7CC(=O)NS7(=O)=O)c(O)cc6c5)CC4)ccc32)C(=O)N1 (stereo not drawn) [Example 23, 2-[4-[3-(2,6-dioxo-3-piperidyl)-2-oxo-1,3-benzoxazol-6-yl]-1-piperidyl]-N-[5-fluoro-7-hydroxy-6-(1,1,4-trioxo-1,2,5-thiadiazolidin-2-yl)-2-naphthyl]acetamide] | 10 to 50 | 50 to 200 |
| CC(C)n1c(=O)n(C2CCC(=O)NC2=O)c2ccc(C3CCN(CC(=O)Nc4ccc5c(F)c(N6CC(=O)NS6(=O)=O)c(O)cc5c4)CC3)cc21 (stereo not drawn) [Example 24, 2-[4-[1-(2,6-dioxo-3-piperidyl)-3-isopropyl-2-oxo-benzimidazol-5-yl]-1-piperidyl]-N-[5-fluoro-7-hydroxy-6-(1,1,4-trioxo-1,2,5-thiadiazolidin-2-yl)-2-naphthyl]acetamide] | 50 to 200 | 50 to 200 |
| Cn1c(=O)n(C2CCC(=O)NC2=O)c2cccc(C3CCN(CC(=O)Nc4ccc5c(F)c(N6CC(=O)NS6(=O)=O)c(O)cc5c4)CC3)c21 (stereo not drawn) [Example 25, 2-[4-[1-(2,6-dioxo-3-piperidyl)-3-methyl-2-oxo-benzimidazol-4-yl]-1-piperidyl]-N-[5-fluoro-7-hydroxy-6-(1,1,4-trioxo-1,2,5-thiadiazolidin-2-yl)-2-naphthyl]acetamide] | 200 to 1000 | ≥ 1000 |
| O=C1CCC(N2C(=O)c3cccc4c(C5CCN(CC(=O)Nc6ccc7c(F)c(N8CC(=O)NS8(=O)=O)c(O)cc7c6)CC5)ccc2c34)C(=O)N1 (stereo not drawn) [Example 26, 2-[4-[1-(2,6-dioxo-3-piperidyl)-2-oxo-benzo[cd]indol-6-yl]-1-piperidyl]-N-[5-fluoro-7-hydroxy-6-(1,1,4-trioxo-1,2,5-thiadiazolidin-2-yl)-2-naphthyl]acetamide] | 50 to 200 | 50 to 200 |
| Cn1c(=O)n(C2CCC(=O)NC2=O)c2ccc(NC3CN(CC(=O)Nc4ccc5c(F)c(N6CC(=O)NS6(=O)=O)c(O)cc5c4)C3)cc21 (stereo not drawn) [Example 27, 2-[3-[[1-(2,6-dioxo-3-piperidyl)-3-methyl-2-oxo-benzimidazol-5-yl]amino]azetidin-1-yl]-N-[5-fluoro-7-hydroxy-6-(1,1,4-trioxo-1,2,5-thiadiazolidin-2-yl)-2-naphthyl]acetamide] | 10 to 50 | 200 to 1000 |
| Cn1nc(C2CCC(=O)NC2=O)c2ccc(C3CCN(CC(=O)Nc4ccc5c(F)c(N6CC(=O)NS6(=O)=O)c(O)cc5c4)CC3)cc21 (stereo not drawn) [Example 28, 2-[4-[3-(2,6-dioxo-3-piperidyl)-1-methyl-indazol-6-yl]-1-piperidyl]-N-[5-fluoro-7-hydroxy-6-(1,1,4-trioxo-1,2,5-thiadiazolidin-2-yl)-2-naphthyl]acetamide] | < 10 | 50 to 200 |
| Cn1c(=O)n(C2CCC(=O)NC2=O)c2ccc(C3CCN(CCNC(=O)c4ccc5c(F)c(N6CC(=O)NS6(=O)=O)c(O)cc5c4)CC3)cc21 (stereo not drawn) [Example 29, N-[2-[4-[1-(2,6-dioxo-3-piperidyl)-3-methyl-2-oxo-benzimidazol-5-yl]-1-piperidyl]ethyl]-5-fluoro-7-hydroxy-6-(1,1,4-trioxo-1,2,5-thiadiazolidin-2-yl)naphthalene-2-carboxamide] | < 10 | 50 to 200 |
